The text below walks through data of patent US4781863A, “Aminocarnitines” (Cornell Research Foundation, Inc., priority 1987, dated 1988).

Molecules are shown by their SMILES.

Data set [1] concerns the target T1, carnitine acetyltransferase (Columba livia, UniProt P52826).
T1 sequence (P52826 31-627): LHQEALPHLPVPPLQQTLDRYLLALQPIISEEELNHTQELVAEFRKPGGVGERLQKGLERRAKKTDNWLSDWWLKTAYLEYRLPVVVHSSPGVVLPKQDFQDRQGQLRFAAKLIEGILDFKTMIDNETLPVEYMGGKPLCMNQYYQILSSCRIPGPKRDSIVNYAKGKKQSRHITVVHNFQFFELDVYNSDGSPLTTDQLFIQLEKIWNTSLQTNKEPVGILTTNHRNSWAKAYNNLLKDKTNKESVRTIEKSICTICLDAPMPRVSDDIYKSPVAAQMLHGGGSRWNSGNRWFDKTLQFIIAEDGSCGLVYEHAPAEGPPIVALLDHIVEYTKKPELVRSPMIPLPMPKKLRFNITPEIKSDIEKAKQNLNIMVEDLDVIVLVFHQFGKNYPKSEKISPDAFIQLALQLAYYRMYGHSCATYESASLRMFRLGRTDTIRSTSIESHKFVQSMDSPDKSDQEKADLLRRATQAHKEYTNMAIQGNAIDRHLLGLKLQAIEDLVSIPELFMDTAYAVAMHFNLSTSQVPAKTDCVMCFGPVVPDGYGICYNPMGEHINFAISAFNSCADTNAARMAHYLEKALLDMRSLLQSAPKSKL
Briefly: carnitine acetyltransferase inhibition assay (coupled CS/MDH, NADH at 340 mμ). The class given is biochemical. The procedure:
D,L-3-acetamido-4-trimethylaminobutyric acid.H2 O, referred to hereinafter as AAC, was assayed for inhibition of carnitine acetyltransferase.
The procedure used is described in Fritz, I. B., Schultz, S. K., and Srere, P. A., "Properties of Partially Purified Carnitine Acetyltransferase", J. Biol. Chem., 238, 2509-2517 (1963).
The assay was based on the following reactions wherein CAT is used to denote carnitine acetyltransferase, CS is used to denote citrate synthase, MDH is used to denote malate dehydrogenase, NAD is used to denote β-nicotinamide adenine dinucleotide (unreduced form) and NADH is used to denote β-nicotinamide adenine dinucleotide (reduced form):
The assay is based on the fact that the velocity of reaction to produce acetyl-Coenzyme A is reduced to the extent that CAT is inhibited. Reactions (2) and (3) are a detection system for acetyl-Coenzyme A wherein acetyl-Coenzyme A, as it is produced, reacts with oxaloacetate thereby causing the MDH to catalyze production of oxaloacetate to replace that which is used and resulting in production of NADH which is detected using a spectrophotometer based on its property of absorbing light at 340 mμ. Thus, when CAT is bound and inhibited, the rate of NADH production is decreased and the rate of increase of absorbency at 340 mμ is decreased. The results are readily compiled in a Lineweaver-Burk plot of the reciprocal of reaction velocity versus the reciprocal of concentration of acetylcarnitine and the data can be analyzed to o provide Ki ' values as mentioned above.
Sixteen runs were carried out. They consisted of a set of 4 runs where 1 mM of D,L-acetylcarnitine (pH 8.0) was included, a set of 4 runs where 2 mM of D,L-acetylcarnitine was included, a set of 4 runs where 5 mM of D,L-acetylcarnitine was included and a set of 4 runs where 10 mM of D,L-acetylcarnitine was included. In each set of runs, one run was conducted without AAC, one run was conducted with 0.1 mM AAC, one run was conducted with 0.5 mM AAC, and one run was conducted with 1.0 mM AAC.
Each run was carried out utilizing a cuvette with 1 ml total being added to it. To each cuvette was added 0.7 ml of a premix of aqueous solutions of Tris-HCl buffer, NAD^+, dithiothreitol, and Tris D,L-malate, pH of 8.0 (concentrations in the premix were as follows: Tris-HCl, 143 mM; NAD^+, 0.71 mM; dithiothreitol, 4.3 mM; and Tris D,L-malate, 14.3 mM, the selected amount of D,L-acetylcarnitine as described above, 0.05 ml of a 4 mM aqueous solution of Coenzyme A, 0.025 ml of a 168 units/ml solution of CS, 0.025 ml of a 240 units/ml solution of MDH, the selected amount of AAC as described above, and water to 0.995 ml. The D,L-acetylcarnitine was added utilizing solution of concentration of 100 mM (in other words 0.010 ml for the first set of runs, 0.020 ml for the second set of runs, 0.050 ml for the third set of runs, 0.100 ml for the fourth set of runs). The AAC was added utilizing solution of concentration of 100 mM (in other words, additions for runs in each set were of 0 ml, 0.001 ml, 0.005 ml and 0.010 ml).
After the above described reactants were added, each cuvette and its contents were incubated for 15 minutes at 30° C.
Directly after the incubation period, 0.005 ml of CAT (concentration 5 units/ml) was added in each case.
The reaction rate in each case was measured as described above as a function of change in absorbance at 340 mμ (providing a time course of NADH formation) and was expressed as mole NADH/min. (1 mM NADH =6.2×ΔA340).
A Ki 'value for the D,L form of AAC was calculated to be 5×10^-5 M which is 10^-2 to 10^-3 times the Ki ' values found by Fritz and Schultz for the compounds they tested.

Another data set concerns the target T2, CAT (Mus musculus, UniProt P47934).
T2 construct: from tissue; host or cells: whole living mice (endogenous enzyme)
T2 sequence (P47934 1-626): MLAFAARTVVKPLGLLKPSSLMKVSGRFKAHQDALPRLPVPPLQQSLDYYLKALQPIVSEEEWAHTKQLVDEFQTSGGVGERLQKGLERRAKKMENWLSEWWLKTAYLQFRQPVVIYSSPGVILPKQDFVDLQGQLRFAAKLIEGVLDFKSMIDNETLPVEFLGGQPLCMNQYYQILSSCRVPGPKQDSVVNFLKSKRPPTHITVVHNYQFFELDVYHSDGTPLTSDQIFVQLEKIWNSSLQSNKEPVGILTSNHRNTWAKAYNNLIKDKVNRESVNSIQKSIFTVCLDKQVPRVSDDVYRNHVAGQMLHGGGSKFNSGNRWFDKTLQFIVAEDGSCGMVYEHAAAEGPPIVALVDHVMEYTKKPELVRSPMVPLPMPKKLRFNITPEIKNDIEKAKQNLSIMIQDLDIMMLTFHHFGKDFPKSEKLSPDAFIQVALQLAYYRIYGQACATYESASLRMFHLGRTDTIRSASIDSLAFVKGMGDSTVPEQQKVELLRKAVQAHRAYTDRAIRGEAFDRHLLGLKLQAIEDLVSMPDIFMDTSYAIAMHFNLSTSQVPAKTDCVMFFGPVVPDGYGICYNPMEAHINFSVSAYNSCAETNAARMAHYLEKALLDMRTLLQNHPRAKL
The experiment in a line: carbon 14 CO2 output of mice given carbon 14 tagged acetylcarnitine. The class given is in vivo. The note with it: 5 mmol/kg intraperitoneally, 0.5 mmol/kg carbon 14 acetylcarnitine subcutaneously, monitored 6 hours. The procedure:
(§1) Four mice were injected subcutaneously with 0.5 mmol/kg carbon 14 tagged acetylcarnitine. Two of them were injected intraperitoneally with 5 mmol/kg of AAC. The carbon 14 CO2 output of the mice was monitored every 15 minutes for 6 hours and for each mouse a graph was prepared with time on the X-axis and % of radiolabelled CO2 on the Y-axis. […] The amount of AAC administered was not toxic to the mice.

Data set [2] can be described thus: toxicity of administered amount in mice. The format is in vivo. The note with it: 5 mmol/kg intraperitoneally. The procedure: as §1
Data set [3] concerns carnitine palmitoyltransferase. Briefly: binding and inhibition of carnitine palmitoyltransferase. The class given is biochemical. The settings on record: no test described.
For data set [4] the following is noted: cited from earlier work.

With `CC(=O)NC(CC(=O)[O-])C[N+](C)(C)C` (racemic) [AAC, D,L-3-acetamido-4-trimethylaminobutyric acid.H2 O], in data set [1], the “Ki' relative to the Ki' values found by Fritz and Schultz for the compounds they tested” value is 10^-2 to 10^-3 times; the “reversibility of binding action” value is given as “reversible by dilution”. Also, in data set [1] (D,L form, Lineweaver-Burk plot, 1-10 mM D,L-acetylcarnitine, pH 8.0, 30° C), the affinity corresponds to a Ki of 50 µM. For the same compound, in data set [1] (Lineweaver-Burk plot, same site as acetyl carnitine), the “mode of inhibition of CAT” value was “competitive inhibitor”. Besides, the inhibition (commonly the relative decrease from the control value, in per cent) at 100 µM in data set [1] (at a concentration of 0.1 mM, read-out: inhibition of formation of acetyl-Coenzyme A) turned out to be 34%. The inhibition at 500 µM in data set [1] (at a concentration of 0.5 mM, read-out: inhibition of formation of acetyl-Coenzyme A) was found to be 67%. The inhibition at 1000 µM in data set [1] (at a concentration of 1 mM, read-out: inhibition of formation of acetyl-Coenzyme A) turned out to be 81%. In addition, in data set [1] (from Lineweaver-Burk plot), the “binding to CAT relative to acetylcarnitine (times more tightly)” value is recorded as 18 times. In addition, the “rate of radiolabelled CO2 output” value at CAT is reported as “retarded rate of radiolabelled CO2 output”. In data set [2], the “toxicity of the amount administered” value was “not toxic”.
For the compound `C[N+](C)(C)CC(CC(=O)[O-])NC(=O)CBr` (racemic) [D,L-3-bromoacetamido-4-trimethylaminobutyricacid.H2 O], the “reversibility of binding action” value in data set [1] is on record as “irreversible”. Moreover, the “inhibition of CAT” value in data set [1] (no test described) was “inhibits CAT similarly to AAC”.
Consider `CCCCCCCCCCCCCCCC(=O)NC(CC(=O)[O-])C[N+](C)(C)C` (racemic) [PAC, D,L-3-palmitoamido-4-trimethylaminobutyric acid.H2 O], for which the “binding and inhibition of carnitine palmitoyltransferase” value in data set [3] was “readily binds to and inhibits carnitine palmitoyltransferase”.
As for `C[N+](C)(C)CC(CC(=O)[O-])OC(=O)CBr` [Bromoacetyl-L-carnitine], the toxicity in vivo result in data set [4] is “toxicity due to release of bromine and/or bromoacetate”.
